Assays:
HUVEC [1] = test: HUVEC migration assay; type: cell-based, human; settings: 40 uM ManN alone
Experimental: HUVECs (passage 6-8) were cultured and serum-starved as described in “Western Blots”. Ten thousand cells in 150 μl of EBM-2 medium were then added to the upper chamber of 8 μm pore size cell culture inserts (Falcon) coated with 0.1% gelatin. The lower compartment was filled with 600 μl EBM-2 medium containing various agents. The plates were incubated at 37° C. to allow migration. After 4 hrs, cells were fixed with 4% PFA for 20 min and then stained with crystal violet (Sigma-Aldrich) for 20 min at RT. Migrated cells on the bottom side of the insert membrane were quantified by counting whole area of the insert at 40× magnification. The experiments were carried out in triplicate and repeated three times. BCEC migration was set up similarly, except that wells were coated with FN, cells were suspended in 1% serum media and migration time was 18-24 hrs.

[2] = test system: dermal microvascular endothelial cells (hDMVECs); test: hDMVEC proliferation assay; type: cell-based, human
Experimental: Proliferation assays with BCECs and BRECs were performed. Log-phase growing BCECs or BRECs (passage <10) were trypsinized, re-suspended and seeded in 96-well plates (no coating) in low-glucose DMEM supplemented with 10% bovine calf serum, 2 mM glutamine, and antibiotics (growth medium), at a density of 1200-1500 cells per well in 200 μl volume. All reagents were added at the indicated final concentrations. After 3-6 days, cells were incubated with AlamarBlue for 4 hrs. Fluorescence was measured at 530 nm excitation wavelength and 590 nm emission wavelength. The experiments were repeated at least three times. To create a hypoxic condition, cells were placed in a hypoxia incubator with a mixture of gas consisting of 1% 02, 5% CO2 and 94% Nz. On each 96-well plate, untreated and VEGF-treated (10/ng/ml) wells were included to monitor plate-to-plate variations. 20% methanol or 0.05% DMSO served as negative controls. 0.05% DMSO served as negative controls when Cas was tested in these cells. Human RMVECs and human adult DMVECs were split into Gelatin-coated 96 wells (2000 cells per well) in low glucose DMEM containing 10% FBS. 1200 cells/well was set up for proliferation assay in low glucose media containing FBS. Data was collected at day 4 or 5. HUVEC (p7-10) were grown on gelatin-coated plate until it reached 70-80% confluency.
(§1) Proliferation assays with fibroblasts were done in low-glucose DMEM containing 1% FBS, with or without 10 ng/ml bFGF, or 100 ng/ml human EGF and the assay was ended at day 3. ARPE-19 cells were gently lifted with 0.025% trypsin and plated in RtEGM media (Clonetics) containing 2% FBS, L-glutamine, human bFGF and GA-1000. Once cells were attached to plates, serum-free RtEGM media was used to maintain the cultures. For proliferation assays, 1500 human RPE cells were plated into 96-well plates in low-glucose DMEM containing 1% FBS. […] Four days later, tumor cell growth was measured by the MTS assay (Promega, Madison, WI), a colorimetric assay that measures metabolic activity of viable cells. […]

NIH3T3 fibroblasts = test: NIH3T3 proliferation assay; type: cell-based, mouse; settings: alone or in combination with growth factors
Experimental: as §1, with “FBS. A673, U87MG, Calu6 and AML12 cells were grown until confluent and were then harvested and re-suspended in appropriate assay media. For proliferation assays, cells were plated at the density of 1000-2000 cells/well in low-glucose DMEM containing 5% FBS or otherwise stated. Bovine pituitary cells (pituitary folliculostellate cells) were isolated as previously described. For proliferation assays with human epidermal keratinocytes, human DMVECs and human dermal fibroblast cells, 1000 cells/well were plated in low-glucose DMEM containing 1% FBS with or without various growth factors. The assay was ended at day 3 for bovine pituitary cells and at day 4 for all the other cell types.” for “FBS.”

HUVEC [3] = test: HUVEC scratch assay; type: cell-based, human; settings: 40 uM ManN in combination with 50 ng/ml VEGF
Experimental: BCECs (passage 6-10) and HUVEC (passage 6-8) were used in this assay. Cells were grown until about 80% confluency in 6-well plates, washed twice with PBS and then starved in serum-free DMEM (low Glucose, Hyclone) for 5 hrs before making a “scratch” using 1 ml tip. Cell monolayers were briefly washed once with serum-free media, followed by various treatments in media containing 1% FBS. 48 hrs later, the assay was stopped by adding 2 ml 4% paraformaldehyde. 20 min later, fixed cells were stained with 1 ml Crystal Violet (Sigma). Plates were washed gently under the running tap water and air-dried before taking pictures. Images were acquired by ZEISS Discovery V8 SteREO microscopy equipped with PixeLINK Megapixel FireWire camera. Quantification of wound closure was done using AxioVision LE Rel.4.4 software. Six images were taken for each sample and six measurements (in pixel) were made on each image using AxioVision LE Rel.4.4 software.

bovine pituitary cells = test: Bovine pituitary cell proliferation assay; type: cell-based; settings: alone or in combination with growth factors
Experimental: as §1, with “FBS. A673, U87MG, Calu6 and AML12 cells were grown until confluent and were then harvested and re-suspended in appropriate assay media. For proliferation assays, cells were plated at the density of 1000-2000 cells/well in low-glucose DMEM containing 5% FBS or otherwise stated. Bovine pituitary cells (pituitary folliculostellate cells) were isolated as previously described. For proliferation assays with human epidermal keratinocytes, human DMVECs and human dermal fibroblast cells, 1000 cells/well were plated in low-glucose DMEM containing 1% FBS with or without various growth factors. The assay was ended at day 3 for bovine pituitary cells and at day 4 for all the other cell types.” for “FBS.”

human keratinocytes = test: Human keratinocyte proliferation assay; type: cell-based
Experimental: as §1, with “FBS. A673, U87MG, Calu6 and AML12 cells were grown until confluent and were then harvested and re-suspended in appropriate assay media. For proliferation assays, cells were plated at the density of 1000-2000 cells/well in low-glucose DMEM containing 5% FBS or otherwise stated. Bovine pituitary cells (pituitary folliculostellate cells) were isolated as previously described. For proliferation assays with human epidermal keratinocytes, human DMVECs and human dermal fibroblast cells, 1000 cells/well were plated in low-glucose DMEM containing 1% FBS with or without various growth factors. The assay was ended at day 3 for bovine pituitary cells and at day 4 for all the other cell types.” for “FBS.”

A673 = A673 proliferation assay; type: cell-based, human
Experimental: as §1, with “FBS. A673, U87MG, Calu6 and AML12 cells were grown until confluent and were then harvested and re-suspended in appropriate assay media. For proliferation assays, cells were plated at the density of 1000-2000 cells/well in low-glucose DMEM containing 5% FBS or otherwise stated. Bovine pituitary cells (pituitary folliculostellate cells) were isolated as previously described. For proliferation assays with human epidermal keratinocytes, human DMVECs and human dermal fibroblast cells, 1000 cells/well were plated in low-glucose DMEM containing 1% FBS with or without various growth factors. The assay was ended at day 3 for bovine pituitary cells and at day 4 for all the other cell types.” for “FBS.”

## N[C@H](C=O)[C@@H](O)[C@H](O)[C@H](O)CO [ManN, 2-Amino-2-deoxy-D-mannose]
HUVEC [1]
  HUVEC migration: stimulation of migration
[2]; ManN by itself
  hDMVECs growth: stimulated
[2]; hDMVECs
  additivity with VEGF on proliferation: dose-dependent additivity with VEGF
[2]; hDMVECs, at 5 mM
  toxicity: minimal toxicity
NIH3T3 fibroblasts
  proliferation of NIH3T3 cells: no increases in proliferation
HUVEC [3]
  HUVEC wound closure: stimulation of migration and wound closure
Bovine pituitary cells
  proliferation of bovine pituitary cells: no increases in proliferation
Human keratinocytes; 5 mM level of ManN
  cellular toxicity, sensitivity among cell types: least sensitive
Human keratinocytes; alone or in combination with growth factors
  proliferation of human keratinocytes: no increases in proliferation
A673
  growth of A673: did not promote growth

From US20230390315A1, “COMPOSITIONS AND METHODS FOR TREATING ISCHEMIC CONDITIONS” (The Regents of the University of California, priority 2020, published 2023)
